Reference: PubChem BioAssay AID2060888 (Molecular Pharmacology Branch, DTP, NCI, 2025)

System: 695427-040-R-J1-PDC complex spheroid viability
Experiment: Anticancer human tumor 695427-040-R-J1-PDC patient-derived colon adenocarcinoma cell line growth inhibition [RAS]
Settings: for IC50: curve of first compound; for viability, T/C: stronger effect = lower value
Outline: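 Tumour cells grown as complex spheroids with HUVEC endothelial cells and mesenchymal stem cells, treated with RAS pathway inhibitor combinations. Each agent spans half-log steps from near clinical Cmax, or 10 microM where Cmax is unknown.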

[1] = second compound 0.000949 µM, first compound 0.0316 µM
[2] = second compound 0.000949 µM, first compound 0.1 µM
[3] = second compound 0.000949 µM, first compound 0.316 µM
[4] = second compound 0.000949 µM, first compound 1 µM
[5] = second compound 0.000949 µM, first compound 3.16 µM
[6] = second compound 0.000949 µM, first compound 10 µM
[7] = second compound 0.003 µM, first compound 0.0316 µM
[8] = second compound 0.003 µM, first compound 0.1 µM
[9] = second compound 0.003 µM, first compound 0.316 µM
[10] = second compound 0.003 µM, first compound 1 µM
[11] = second compound 0.003 µM, first compound 3.16 µM
[12] = second compound 0.003 µM, first compound 10 µM
[13] = second compound 0.00949 µM, first compound 0.0316 µM
[14] = second compound 0.00949 µM, first compound 0.1 µM
[15] = second compound 0.00949 µM, first compound 0.316 µM
[16] = second compound 0.00949 µM, first compound 1 µM
[17] = second compound 0.00949 µM, first compound 3.16 µM
[18] = second compound 0.00949 µM, first compound 10 µM
[19] = second compound 0.03 µM, first compound 0.0316 µM
[20] = second compound 0.03 µM, first compound 0.1 µM
[21] = second compound 0.03 µM, first compound 0.316 µM
[22] = second compound 0.03 µM, first compound 1 µM
[23] = second compound 0.03 µM, first compound 3.16 µM
[24] = second compound 0.03 µM, first compound 10 µM
[25] = second compound 0.0949 µM, first compound 0.0316 µM
[26] = second compound 0.0949 µM, first compound 0.1 µM
[27] = second compound 0.0949 µM, first compound 0.316 µM
[28] = second compound 0.0949 µM, first compound 1 µM
[29] = second compound 0.0949 µM, first compound 3.16 µM
[30] = second compound 0.0949 µM, first compound 10 µM
[31] = second compound 0.3 µM, first compound 0.0316 µM
[32] = second compound 0.3 µM, first compound 0.1 µM
[33] = second compound 0.3 µM, first compound 0.316 µM
[34] = second compound 0.3 µM, first compound 1 µM
[35] = second compound 0.3 µM, first compound 3.16 µM
[36] = second compound 0.3 µM, first compound 10 µM
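Also: viability read after seven days of drug exposure.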
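For viability, T/C in this document: 100% = DMSO vehicle control viability.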

CC1(O)CCCC1n1c(=O)c(C(F)F)cc2cnc(NC3CCN(S(C)(=O)=O)CC3)nc21 (centres undefined) + CCn1c(-c2cc(N3CCN(C)CC3)cnc2C(C)OC)c2c3cc(ccc31)-c1csc(n1)CC(NC(=O)C1CC1C)C(=O)N1CCCC(N1)C(=O)OCC(C)(C)C2
IC50 (second compound 0.000949 µM): > 10000 nM
IC50 (second compound 0.003 µM): > 10000 nM
IC50 (second compound 0.00949 µM): > 10000 nM
IC50 (second compound 0.03 µM): 4610 nM
IC50 (second compound 0.0949 µM): < 31.6 nM
IC50 (second compound 0.3 µM): < 31.6 nM
viability, T/C [1]: 112%
viability, T/C [2]: 74.6%
viability, T/C [3]: 93.8%
viability, T/C [4]: 105%
viability, T/C [5]: 114%
viability, T/C [6]: 74.5%
viability, T/C [7]: 87.3%
viability, T/C [8]: 92.8%
viability, T/C [9]: 91.8%
viability, T/C [10]: 92.7%
viability, T/C [11]: 109%
viability, T/C [12]: 71%
viability, T/C [13]: 95.7%
viability, T/C [14]: 80.8%
viability, T/C [15]: 85.2%
viability, T/C [16]: 78.3%
viability, T/C [17]: 81.8%
viability, T/C [18]: 52%
viability, T/C [19]: 62.4%
viability, T/C [20]: 71.5%
viability, T/C [21]: 59.1%
viability, T/C [22]: 57.1%
viability, T/C [23]: 59.8%
viability, T/C [24]: 32.7%
viability, T/C [25]: 44.2%
viability, T/C [26]: 42.1%
viability, T/C [27]: 50.3%
viability, T/C [28]: 50.8%
viability, T/C [29]: 50.9%
viability, T/C [30]: 25.6%
viability, T/C [31]: 40.5%
viability, T/C [32]: 42%
viability, T/C [33]: 41.2%
viability, T/C [34]: 36.5%
viability, T/C [35]: 44.2%
viability, T/C [36]: 25.2%

CCC(CC)c1cc(NC2CCC(N)C2)n2nccc2n1 (centres undefined) + CCn1c(-c2cc(N3CCN(C)CC3)cnc2C(C)OC)c2c3cc(ccc31)-c1csc(n1)CC(NC(=O)C1CC1C)C(=O)N1CCCC(N1)C(=O)OCC(C)(C)C2
IC50 (second compound 0.000949 µM): 1750 nM
IC50 (second compound 0.003 µM): 1400 nM
IC50 (second compound 0.00949 µM): 732 nM
IC50 (second compound 0.03 µM): 1210 nM
IC50 (second compound 0.0949 µM): < 31.6 nM
IC50 (second compound 0.3 µM): < 31.6 nM
viability, T/C [1]: 104%
viability, T/C [2]: 84.6%
viability, T/C [3]: 83.7%
viability, T/C [4]: 84.6%
viability, T/C [5]: 13.7%
viability, T/C [6]: 12.3%
viability, T/C [7]: 92.8%
viability, T/C [8]: 99.8%
viability, T/C [9]: 85.1%
viability, T/C [10]: 66.4%
viability, T/C [11]: 9.9%
viability, T/C [12]: 10.9%
viability, T/C [13]: 90.3%
viability, T/C [14]: 72.1%
viability, T/C [15]: 69.9%
viability, T/C [16]: 45.8%
viability, T/C [17]: 10.7%
viability, T/C [18]: 12.9%
viability, T/C [19]: 51%
viability, T/C [20]: 56.1%
viability, T/C [21]: 64.8%
viability, T/C [22]: 58.7%
viability, T/C [23]: 7.23%
viability, T/C [24]: 15.1%
viability, T/C [25]: 44.6%
viability, T/C [26]: 47.3%
viability, T/C [27]: 43.9%
viability, T/C [28]: 41.6%
viability, T/C [29]: 11%
viability, T/C [30]: 15.3%
viability, T/C [31]: 29.7%
viability, T/C [32]: 39.4%
viability, T/C [33]: 45.8%
viability, T/C [34]: 27.8%
viability, T/C [35]: 6.23%
viability, T/C [36]: 15.5%
